Experiments:
[1] = tested on: BALB/cByJ and α7nAChR−/− mice; test: IL-33-induced AHR in WT and α7nAChR-deficient mice; assay type: in vivo, mouse; conditions: rm-IL-33, agonist 125 μg days 1-3
Experimental: FIGS. 4A-4E: α7nAChR expression is critical for GTS-21 action on ILC2s in vivo. BALB/cByJ and α7nAChR^−/− mice were intranasally challenged with rm-IL-33 or PBS, and also given α7nAChR agonist (125 μg) or PBS on days 1-3. Measurement of lung function and analysis of BAL followed on day 4. (FIG. 4A) Lung resistance. (FIG. 4B) Total number of eosinophils in BALF. (FIG. 4C) Rag^−/− GC^−/− mice were received ILC2s from either WT or α7nAChR^−/− mice. After the adoptive transfer, mice were intranasally challenged with rm-IL-33 or PBS; they also received α7nAChR agonist (125 μg) or PBS on days 1-3. Measurement of lung function and analysis of BAL followed on day 4, according to scheme 4C. (FIG. 4D) Lung resistance. (FIG. 4E) Total number of eosinophils in BALF. Data are representative of at least three independent experiments and are presented as means±SEM (n=4; Student's test ***, p<0.001, WT IL-33+α7nAChR agonist vs. α7nAChR^−/− IL-33+α7nAChR agonist).
To assess whether the previously observed effects of GTS-21 are due to its actions on the α7nAChR, Applicants challenged WT and α7nAChR-deficient mice with or without rm-IL-33, and with or without α7nAChR agonist, for three consecutive days (FIGS. 4A-4B). As expected, in the WT mice, the agonist repressed IL-33-induced AHR and eosinophilic infiltration.
Mice were intranasally (i.n.) administered carrier-free recombinant mouse IL-33 (BioLegend, San Diego Calif., 0.5 µg per mouse in 50 µL) with or without […] of α7nAChR agonist (kindly provided by Lin Chen) on three consecutive days. Mice were intranasally (i.n.) administered carrier-free recombinant mouse IL-25 (BioLegend, San Diego Calif., 5 µg per mouse in 50 µL) with or without […] of α7nAChR agonist on three consecutive days. For Alternaria alternata experiments, mice were i.n. administered Alternaria alternata (Greer Labs, Lenoir, N.C., 100 μg per mouse in 50 μL) with or without 125 µg α7nAChR agonist for four consecutive days. One day after the last challenge, mice were anesthetized using i.p. injection of ketamine (10 mg mL^−1) and xylazine (1 mg mL^−1). Measurements of airway resistance and dynamic compliance were conducted with the Fine Pointe RC System (Buxco Research Systems, Wilmington, N.C.), in which mice were mechanically ventilated using a modified version as previously described^36,67. Mice were sequentially challenged with aerosolized PBS (baseline), followed by increasing doses of methacholine. Maximum lung resistance (RL) and minimum compliance (Cdyn) values were recorded during a three-minute period after each methacholine challenge.

lung ILC2s = test: Gene expression analysis of ILC2s with NanoString nCounter technology; assay type: cell-based, mouse; conditions: ILC2s from rm-IL-33 challenged mice with or without agonist
From the text: FIGS. 5A-5F: Cholinergic signal attenuates ILC2 proliferation and GATA3 expression. (FIG. 5A) Mean fluorescence intensity of Ki67 and percentage of Ki67+ cells in isolated lung ILC2s, stimulated with IL-33 in the absence and presence of α7nAChR. (FIG. 5B) Mean fluorescence intensity of GATA3 in isolated lung ILC2s, stimulated with IL-33 in the absence and presence of α7nAChR. One representative experiment of two is shown (n=5; Student's t test *, p<0.05; **, p<0.01; ***p<0.001). […] FACS-purified ILC2s from WT mice challenged with rm-IL-33 with or without α7nAChR agonist as described in FIG. 3A were quantified by NanoString nCounter technology. Data range from −1 to +1 for the most reduced and most increased gene expression, respectively. (FIG. 5D) Expression of NF-κB p65 in isolated lung ILC2s from mice challenged with IL-33 with (dotted line) or without (thick line) α7nAChR agonist. The level of isotype-matched stain control is shown as a gray-filled histogram. (FIG. 5E) Expression of phosphorylated IKKα/β (Ser176/180) in isolated lung ILC2s stimulated with IL-33, with (dotted line) or without (thick line) α7nAChR agonist for 24 hours. The level of isotype-matched stain control is shown as a gray-filled histogram. (FIG. 5F) Mean fluorescence intensity of phosphorylated IKKα/β with or without α7nAChR agonist.
Next, to investigate the molecular mechanism of α7nAChR agonist-mediated anti-inflammatory effects, Applicants analyzed the gene expression profile of ILC2s with or without α7nAChR agonist treatment by NanoString technology as described in the methods. […] Applicants further confirmed by flow cytometry that α7nAChR agonist reduced NF-κB p65 expression in ILC2s (FIG. 5D). To better establish the underlying mechanisms, Applicants explored the signaling pathway upstream of NF-κB by measuring the activated form of IKKα/β, which is phosphorylated on serine residues 176 and 180. Consistent with our previous results shown in FIG. 5D, α7nAChR agonist reduced phosphorylated IKKα/β expression in ILC2s (FIGS. 5E-5F). NF-κB and STAT-6 are both critical for GATA-3 transcription. The inhibition of GATA-3 expression results in a down-regulation of IL-5, IL-9 and IL-13 secretion from ILC2s.
The difference in the abundance of scripts between ILC2s purified from rm-IL33 administered mice with or without α7nAChR agonist were analyzed with NanoString nCounter technology. Heat plots were generated with R statistical software.

α7 subtype of nAChR = α7 subtype of nAChR (Homo sapiens, UniProt P36544); conditions: cited from earlier work
Sequence of α7 subtype of nAChR (P36544 23-502): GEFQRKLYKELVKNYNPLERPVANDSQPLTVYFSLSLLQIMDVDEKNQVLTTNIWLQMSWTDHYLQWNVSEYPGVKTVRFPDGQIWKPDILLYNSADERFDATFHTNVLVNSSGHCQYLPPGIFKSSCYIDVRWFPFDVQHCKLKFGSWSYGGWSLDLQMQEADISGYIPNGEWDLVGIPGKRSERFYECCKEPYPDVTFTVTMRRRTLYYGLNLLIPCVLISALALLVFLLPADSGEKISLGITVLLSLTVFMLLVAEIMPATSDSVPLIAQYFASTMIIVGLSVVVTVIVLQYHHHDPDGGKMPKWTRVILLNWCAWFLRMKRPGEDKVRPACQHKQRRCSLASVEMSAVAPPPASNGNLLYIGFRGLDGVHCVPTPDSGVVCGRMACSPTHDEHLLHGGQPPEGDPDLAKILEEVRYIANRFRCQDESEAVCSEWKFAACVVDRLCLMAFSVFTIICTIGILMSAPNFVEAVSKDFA

- expression of STAT-5a, STAT-5b, and IL-2 receptors (IL-2/IL-7 signaling panel) (lung ILC2s): relatively unaffected
SMILES: COc1ccc(/C=C2\CCCN=C2c2cccnc2)c(OC)c1 [GTS-21, 3-[(3E)-3-[(2,4-dimethoxyphenyl)methylidene]-5,6-dihydro-4H-pyridin-2-yl]pyridine]
- IL-33-induced AHR ([1]; WT mice): repressed
- eosinophilic infiltration ([1]; WT mice): repressed
- IL-33-induced AHR ([1]; α7nAChR-deficient mice): affected neither AHR nor eosinophilia
- eosinophilia ([1]; α7nAChR-deficient mice): affected neither AHR nor eosinophilia
- RelA expression (lung ILC2s): unaffected
- expression at the mRNA level of NF-κB1 (lung ILC2s): decrease
- expression of GATA-3, STAT-6, NF-κB, IL-5, IL-9 and IL-13 (IL-33/IL-25 signaling pathway genes) (lung ILC2s): inhibited
- factors associated with apoptosis (Casp3, Casp8, Bcl-2) (lung ILC2s): did not activate
- binding to the α7 subtype (α7 subtype of nAChR): binds
